Data published in US9566262B2, “Itch suppression by fucoxanthin” (THE RITSUMEIKAN TRUST, priority 2015, dated 2017).

Experiments:
GATA-luc = assay: Luciferase reporter assay in HEK293 cells; assay type: cell-based; conditions: HEK293, treated 3 hours after transfection for 48 hours, vs DMSO (fucoxanthin 0.1, 1, 10 μM)
Text: The plasmids pGL3-Cebpα promoter-luc and pGL3-Mitf1 promoter-luc were provided by Dr. Hua Huang (University of Colorado school, Denver, USA). The plasmid NF-κB-luc was purchased from Agilent Technologies (Santa Clara, Calif.). The GATA-responsive reporter vector was provided by Dr. Ishijima (Takasaki University of Health and welfare, Gunma, Japan). Three GATA motifs from mouse α-1 globulin gene (5′-TGATAA-3′) were tandemly inserted into Sma I site of pRBGP3. HDC promoter was provided by Dr. Ootsu (Tohoku University school of Medicine, Sendai, Japan) and cloned into Kpn I-Hind III site of pGL4.10 (Hdc promoter-luc). The reporter assay was performed according to the method described in Kanatani, N. et al. Briefly, HEK293 cells were transfected with each of the luciferase constructs (0.2 μg) or pRL-CMV (Promega, Madison, Wis.) (0.001 μg). At 3 hours after transfection, the cells were treated with fucoxanthin (0.1 μM, 1 μM or 10 μM) or DMSO for 48 hours and reporter assay was performed using Dual-Luciferase® Reporter Assay System (Promega). Luciferase activity was measured using luminometer model TD20/20n (Turner BioSystems, Sunnyvale, Calif.) and normalized to Renilla luciferase activity expressed by CMV promoter.
GATA-reporter assay was performed using HEK293 cells expressing GATA-luc prepared in Example 8, in the same manner as described in Example 8 except using various carotenoids (fucoxanthin, astaxanthin, lycopene, β-carotene or retinoic acid) in place of fucoxanthin.

[1] = system: bone marrow-derived mast cells (BMMCs); assay: Granule formation in BMMCs, tryptase immunostaining; assay type: cell-based, mice; conditions: 10 μM, vs control-treated cells
Method: Mature mast cells were prepared in the same manner as described in Example 5. The BMMCs obtained were mounted on a glass slide and heat-fixed. The analysis of the preparation was performed according to the method described in Kosaka, T., Fukui, R., Matsui, M. et al. (2014) “RAGE, Receptor of Advanced Glycation Endoproducts, Negatively Regulates Chondrocytes Differentiation.” PLoS ONE 9(10): e108819. Briefly, the cells were reacted with a mouse anti-mast cell tryptase antibody (AB2378, Abcam, Tokyo, Japan) and then reacted with an FITC-conjugated anti-mouse IgG (Santa Cruz Biotechnology, Inc.) and 1 μg/mL DAPI (4′,6-diamino-2-phenylindole dihydrochloride). The fluorescent image was analyzed by EVOS® FL Cell Imaging System (Life Technologies Corp).
To confirm where the effect of fucoxanthin on granule formation in mast cells is specific rather than common to carotenoids, we compared granule formation between fucoxanthin-treated and astaxanthin-treated BMMCs by immunostaining of tryptase. The immunostaining assay was performed in the same manner as described in Example 6.

NC/Nga mice [2] = assay: Swelling (length) of the auricular lymph node in NC/Nga mice; assay type: in vivo; conditions: topical application for 5 weeks, PiCl-sensitized, vs Vaseline
Text: (§1) NC/Nga mice (5 weeks old, female) were purchased from Japan SLC, Inc. […] On day 12, day 19, day 26 and day 33 after starting application of Vaseline or fucoxanthin, 0.8% picryl chloride (PiCl) was further applied to the back skin of the mice. The behaviors of the mice were observed by video monitoring. On day 34 after starting application of Vaseline or fucoxanthin, bromodeoxyuridine (BrdU, Nacalai Tesque) (0.[…] weight) was intraperitoneally administered to the mice. At 5 weeks after starting application of Vaseline or fucoxanthin, the time each mouse spent for scratching behavior in 10 minutes was measured by video monitoring. Then, the mice were sacrificed and the auricular lymph node, blood and skin were obtained. Serum IgE content was determined by enzyme-linked immunosorbent assay (ELISA) using Mouse IgE Assay Kit (Morinaga Institute of Biological Science, Inc.). […] BrdU uptake was determined by ELISA using Cell Proliferation ELISA, BrdU (Colorimetric) (Roche Diagnostics K.K.). […] Also, serum IgE levels and swelling of the auricular lymph nodes of the mice were determined in the same manner as described in Example 2.

NC/Nga mice [3] = assay: Clinical symptoms of dermatitis in PiCl-sensitized NC/Nga mice; assay type: in vivo; conditions: topical application plus PiCl, at 5 weeks
Method: Next, we examined the effects of fucoxanthin and astaxanthin on clinical symptoms of dermatitis in NC/Nga mice. In the same manner as described in Example 2, fucoxanthin or astaxanthin and PiCl were applied to NC/Nga mice. […] In the same manner as described in Example 2, Vaseline, fucoxanthin or tacrolimus and PiCl were applied to NC/Nga mice. […] Also, serum IgE levels and swelling of the auricular lymph nodes of the mice were determined in the same manner as described in Example 2.

NC/Nga mice [4] = assay: Transdermal water loss (TEWL) in the skin of NC/Nga mice; assay type: in vivo; conditions: topical application plus PiCl, at 5 weeks, vs Vaseline
Method: Transdermal water loss (TEWL) in the skin of the mice treated with fucoxanthin was also measured and compared with that in the skin of the mice treated with tacrolimus.

NC/Nga mice [5] = assay: Serum IgE content by ELISA in NC/Nga mice; assay type: in vivo; conditions: topical application for 5 weeks, PiCl-sensitized, vs Vaseline
Text: as §1

Q: For CC1=C(/C=C/C(C)=C/C=C/C(C)=C/C=C/C=C(C)/C=C/C=C(C)/C=C/C2=C(C)C(=O)[C@@H](O)CC2(C)C)C(C)(C)C[C@H](O)C1=O [astaxanthin, reference compound], which GATA-luc expression (GATA-luc) is on record?
A: not downregulated

Q: And the “granule formation (tryptase-positive cells / immunoreactivity against tryptase)” value [1]?
A: not significantly reduced

Q: CC(C)=CCC/C(C)=C/C=C/C(C)=C/C=C/C(C)=C/C=C/C=C(C)/C=C/C=C(C)/C=C/C=C(\C)CCC=C(C)C [lycopene] was tested. Which GATA-luc expression (GATA-luc) did it give?
A: not downregulated

Q: C=CC[C@@H]1/C=C(\C)C[C@H](C)C[C@H](OC)[C@H]2O[C@@](O)(C(=O)C(=O)N3CCCC[C@H]3C(=O)O[C@H](/C(C)=C/[C@@H]3CC[C@@H](O)[C@H](OC)C3)[C@H](C)[C@@H](O)CC1=O)[C@H](C)C[C@@H]2OC [tacrolimus, reference compound] was tested. Which “swelling of the auricular lymph node (ear swelling)” value (NC/Nga mice [2]) did it give?
A: neither ear swelling (FIG. 9A) nor serum IgE level (FIG. 9B) were affected

Q: What about the “clinical symptoms of dermatitis (AD symptoms)” value (NC/Nga mice [3]) of the same compound?
A: protected AD symptoms partially

Q: What about the “transdermal water loss (TEWL)” value (NC/Nga mice [4]) of the same compound?
A: did not affect TEWL

Q: And the “serum IgE level” value (NC/Nga mice [5])?
A: neither ear swelling (FIG. 9A) nor serum IgE level (FIG. 9B) were affected

Q: For CC1=C(/C=C/C(C)=C/C=C/C(C)=C/C=C/C=C(C)/C=C/C=C(C)/C=C/C2=C(C)CCCC2(C)C)C(C)(C)CCC1 [β-carotene], which GATA-luc expression (GATA-luc) is on record?
A: rather upregulated
